Experimental data reported in US20260356823A1, “SODIUM CHANNEL REGULATOR AND USE THEREOF” (SHANGHAI HUILUN PHARMACEUTICAL CO., LTD., priority 2022, published 2026).

How the values were obtained:
[1] = biological target: T1, human Nav1.8 (Homo sapiens, UniProt Q9Y5Y9); test: In vitro inhibition of Nav1.8, manual patch clamp on HEK293 cells stably expressing human Nav1.8; type: cell-based; conditions: human Nav1.8, manual patch clamp; for inhibition at 0.1 µM: HEK293, 100 nM, read-out: Inhibitory activity (inhibition/% at 100 nM concentration)
T1 construct: expressed in transfected cells
T1 sequence (Q9Y5Y9 whole entry): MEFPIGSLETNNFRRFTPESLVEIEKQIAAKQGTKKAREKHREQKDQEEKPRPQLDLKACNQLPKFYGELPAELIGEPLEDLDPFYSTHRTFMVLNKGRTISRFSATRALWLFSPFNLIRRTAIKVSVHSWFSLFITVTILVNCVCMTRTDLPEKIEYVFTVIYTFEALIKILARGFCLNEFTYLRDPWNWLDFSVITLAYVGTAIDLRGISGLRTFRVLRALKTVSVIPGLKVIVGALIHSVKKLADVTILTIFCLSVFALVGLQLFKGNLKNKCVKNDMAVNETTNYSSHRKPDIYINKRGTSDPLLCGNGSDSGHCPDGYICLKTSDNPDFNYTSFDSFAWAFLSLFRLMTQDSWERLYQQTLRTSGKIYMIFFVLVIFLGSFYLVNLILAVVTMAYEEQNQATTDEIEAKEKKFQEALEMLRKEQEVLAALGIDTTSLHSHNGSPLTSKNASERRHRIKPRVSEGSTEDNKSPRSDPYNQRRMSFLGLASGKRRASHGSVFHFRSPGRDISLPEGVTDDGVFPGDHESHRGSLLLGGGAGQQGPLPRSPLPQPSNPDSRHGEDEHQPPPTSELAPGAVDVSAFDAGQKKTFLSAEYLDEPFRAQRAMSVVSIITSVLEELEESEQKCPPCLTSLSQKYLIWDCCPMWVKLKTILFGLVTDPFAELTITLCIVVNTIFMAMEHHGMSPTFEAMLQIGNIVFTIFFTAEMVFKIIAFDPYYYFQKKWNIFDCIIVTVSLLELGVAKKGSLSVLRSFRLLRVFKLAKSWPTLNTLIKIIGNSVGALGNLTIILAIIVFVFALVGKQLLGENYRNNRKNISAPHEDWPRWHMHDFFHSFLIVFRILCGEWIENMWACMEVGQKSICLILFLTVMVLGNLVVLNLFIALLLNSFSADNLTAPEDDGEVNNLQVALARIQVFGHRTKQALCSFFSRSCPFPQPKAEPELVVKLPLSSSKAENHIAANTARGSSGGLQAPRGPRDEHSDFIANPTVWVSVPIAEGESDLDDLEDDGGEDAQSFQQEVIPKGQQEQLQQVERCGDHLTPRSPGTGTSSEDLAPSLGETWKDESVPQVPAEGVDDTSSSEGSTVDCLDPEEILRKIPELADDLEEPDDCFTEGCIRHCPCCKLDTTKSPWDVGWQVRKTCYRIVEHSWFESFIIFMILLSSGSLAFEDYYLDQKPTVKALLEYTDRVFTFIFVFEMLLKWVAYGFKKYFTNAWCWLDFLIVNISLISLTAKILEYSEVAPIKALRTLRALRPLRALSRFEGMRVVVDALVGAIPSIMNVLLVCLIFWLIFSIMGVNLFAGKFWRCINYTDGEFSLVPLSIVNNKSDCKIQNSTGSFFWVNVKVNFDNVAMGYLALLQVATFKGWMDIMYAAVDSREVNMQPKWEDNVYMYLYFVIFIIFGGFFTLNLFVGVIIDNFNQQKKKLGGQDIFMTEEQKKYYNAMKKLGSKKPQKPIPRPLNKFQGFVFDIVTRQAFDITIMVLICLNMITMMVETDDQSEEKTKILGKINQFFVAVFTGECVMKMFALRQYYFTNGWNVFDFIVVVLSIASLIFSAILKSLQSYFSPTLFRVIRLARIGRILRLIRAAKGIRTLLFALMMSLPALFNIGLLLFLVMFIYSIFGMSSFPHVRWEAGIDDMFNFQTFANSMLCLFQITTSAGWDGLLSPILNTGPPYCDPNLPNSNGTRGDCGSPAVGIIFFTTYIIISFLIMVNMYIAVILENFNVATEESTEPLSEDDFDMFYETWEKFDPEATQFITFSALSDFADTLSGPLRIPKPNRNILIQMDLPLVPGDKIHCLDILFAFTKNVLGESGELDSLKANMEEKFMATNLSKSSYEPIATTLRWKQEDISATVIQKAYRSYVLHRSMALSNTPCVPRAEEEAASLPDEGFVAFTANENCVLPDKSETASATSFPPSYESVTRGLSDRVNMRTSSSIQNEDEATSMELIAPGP
Procedure: Bioactivity Test 1: In Vitro Inhibition of Nav1.8 by the Compound
By using a manual patch clamp on HEK293 cells stably expressing human Nav1.8, currents on Nav1.8 before and after administration of the compound were compared after the currents on Nav1.8 were stable, to obtain the effect of the compound on the Nav1.8 channel.
The to-be-tested compound was dissolved in DMSO to prepare a 9 mM stock solution, which was taken and dissolved in extracellular fluid at a desired concentration on the day of testing. The extracellular fluid included the following ingredients (mM): NaCl, 137; KCl, 4; CaCl2, 1.8; MgCl2, 1; HEPES, 10; glucose, 10; and pH 7.4 (NaOH titration). All reagents were purchased from Sigma (St. Louis, MO).
The cells were clamped at −80 mV and depolarized with a sustained 10 ms square wave to 10 mV to obtain a current on Nav1.8. This process was repeated every 5 seconds. A maximum current caused by the square wave was detected. After the current is stable, the to-be-tested compound (dissolved in the extracellular fluid at the desired concentration) was perfused. After the current is stable, the strength of blocking Nav1.8 by the compound was calculated based on the currents before and after perfusion of the compound. pCLAMP 10 (Molecular Devices, Union City, CA) was used. That the current is stable means that the current changes over time within a limited range.

[2] = biological target: T2, Nav1.8 sodium channel (Homo sapiens, UniProt Q9Y5Y9); test: In vitro inhibition IC50 of Nav1.8, whole-cell patch clamp on CHO cell line stably expressing Nav1.8 (SCN10A, NM_006514); type: cell-based; conditions: CHO cells stably expressing Nav1.8, whole-cell patch clamp, room temperature
T2 construct: expressed in transfected cells
T2 sequence (Q9Y5Y9 whole entry): as above
Description: Bioactivity Test 2: In Vitro Inhibition IC50 of Nav1.8 by the Test Compound
A CHO cell line stably expressing the Nav1.8 sodium channel was used for experimental assays with the following gene information: Sodium channel, voltage-gated, type 8, alpha (SCN10A), cDNA strictly similar to GenBank accession number: NM_006514.
Before the patch clamp assay, the cells were detached with 0.25%-Trypsin-EDTA, and 6.5×10^3 cells were spread onto cover slips and cultured in a 24-well plate (final volume: 500 μL) for 18 h. Then, the assay was carried out.
Fluids for electrophysiological recording included: extracellular fluid: K-007-1, 140 mM NaCl, 3.5 mM KCl, 1 mM MgCl2·6H2O, 2 mM CaCl2·2H2O, 10 mM D-Glucose, 10 mM HEPES, 1.25 mM NaH2PO4·2H2O, and NaOH for adjustment to pH=7.4; and intracellular fluid: Nav-001-2, 50 mM CsCl, 10 mM NaCl, 10 mM HEPES, 60 mM CsF, 20 mM EGTA, and […]. The extracellular fluid was stored for 2 weeks. The intracellular fluid was prepared and dispensed as 1 mL per tube, and frozen in a refrigerator at −20° C. Freshly thawed intracellular fluid was used for daily experiments. All intracellular fluids have to be used up within three months. Beyond three months, the old intracellular fluid has to be discarded, and the intracellular fluid needs to be prepared again.
Patch clamp assay: Whole-cell patch-clamp recording Nav1.8 sodium currents under voltage stimulation was carried out as follows: When a whole-cell seal was formed, the cell was clamped at a voltage of −120 mV and maintained for 30 ms. The cell was depolarized from the clamping voltage to 0 mV and maintained for 50 ms. Then, the voltage was restored to −50 mV (for a specific voltage, refer to a half-inactivation voltage from an IV test) and maintained for 5 s. Next, the cell membrane potential was restored to −120 mV and maintained for 20 ms. Then, the cell was depolarized to 0 mV and maintained for 50 ms. Finally, the voltage was restored to the clamping voltage −120 mV and maintained for 30 ms. Data was collected at […]. The effect of the drug on a peak sodium current was observed. Experimental data was collected by an EPC 10 amplifier (HEKA) and stored in PatchMaster (HEKA) software.
A capillary glass tube was pulled into a recording electrode by using a microelectrode puller. The electrode filled with the intracellular fluid was loaded into an electrode holder. A microelectrode manipulator was manipulated under an inverted microscope to immerse the electrode into the extracellular fluid, and an electrode resistance (Rpip) was recorded. The electrode was brought into contact with the cell surface, and suction was applied under negative pressure to form a high-resistance seal (GQ). In this case, fast capacitance compensation was carried out, and negative pressure was then applied to break the cell membrane through suction to form a whole-cell recording mode. Then, slow capacitance compensation was carried out, and experimental parameters such as a membrane capacitance (Cm) and a series resistance (Rs) were recorded. No leakage compensation was carried out.
The drug was administered after the Nav1.8 current obtained by whole-cell recording. The drug acted at each concentration for 5 min (or until the current was stable), and then the drug was tested at a next concentration. Each test compound was tested for multiple concentrations. The cover slips with the cells spread were placed in a recording bath under an inverted microscope. A blank control extracellular fluid and a working solution of the to-be-tested compound were perfused by gravity through the recording bath into the cells from low concentration to high concentration. Fluid exchange was carried out by using a peristaltic pump during the recording. A current detected for each cell in the compound-free extracellular fluid served as its own control. For each concentration, at least three cells were tested independently for three times. […]

[3] = system: Nav1.8; conditions: background; cited from earlier work
[4] = background; cited from earlier work
[5] = Efficacy on a mouse model of incisional pain, mechanical pain threshold (PWT); type: in vivo; conditions: intravenous
Description: Bioactivity Test 3: Efficacy of the Compound on a Mouse Model of Incisional Pain
Model establishment: Through isoflurane anesthesia and routine disinfection, a 0.5 cm longitudinal skin incision extending to the toe was made with a blade on the plantar surface of the left hindfoot about 0.2 cm distal to the joint; and the plantar muscle was separated, slightly elevated, and then incised longitudinally, taking care not to disrupt the muscle origin. The incision was sutured horizontally and interruptedly with 5-0 nylon thread (2 sutures).
Solvents: A solvent for the test compound was 5% DMSO+10% Solutol+85% Saline, and a solvent for a positive compound TRV-130 was 10% ethanol+10% cremophor+80% water. […]
Mechanical pain threshold measurement: Before modeling, a pre-modeling mechanical pain threshold was measured. At 2.5 h after modeling, a pre-administration mechanical pain threshold was measured. Oral administration was carried out after the measurement, and a mechanical pain threshold was measured at 2 h after the administration. […] Each animal was measured three times at intervals of 3-5 minutes, and an average value was calculated.
Data analysis: Relevant data was organized in Office Excel 2013 and GraphPad Prism 6.0. Data was expressed as Mean±SEM (standard error). […]

SMILES	inhibition at 0.1 µM [1] [%]	IC50 [2] [nM]	other results
COc1c([C@H]2[C@H](C(=O)Nc3ccc4c(c3)NC(=O)C4)O[C@@](C)(C(F)(F)F)[C@H]2C)ccc(F)c1F (relative stereo) [Example 2]	≥ 50	67	
[2H]C([2H])([2H])NS(=O)(=O)c1cc(NC(=O)[C@@H]2O[C@@](C)(C(F)(F)F)[C@@H](C)[C@H]2c2ccc(F)c(F)c2OC)ccn1 (relative stereo) [Example 82, rel-(2R,3S,4S,5R)-3-(3,4-difluoro-2-methoxyphenyl)-4,5-dimethyl-N-(2-(N-(methyl-d3)sulfamoyl)pyridin-4-yl)-5-(trifluoromethyl)tetrahydrofuran-2-carboxamide]	≥ 50	< 1	
CNC(=O)c1ccc(-c2cc(Cl)cc(Cl)c2Cl)c(N)n1 [PF-01247324]			selectivity (in words) [3]: poor selectivity; bioavailability (in words) [4]: low bioavailability; pharmacokinetic data (in words) [4]: poor pharmacokinetic data
C[C@@H](C(N)=O)[C@H](N)c1nc2ccc(C(C)(C)C)cc2[nH]1 [PF-06305591]			selectivity (in words) [3]: poor selectivity; bioavailability (in words) [4]: low bioavailability; pharmacokinetic data (in words) [4]: poor pharmacokinetic data
COc1c([C@H]2[C@H](C(=O)Nc3ccc4c(c3)C(=O)NCC4)O[C@@](C)(C(F)(F)F)[C@H]2C)ccc(F)c1F (relative stereo) [Example 6, rel-(2R,3S,4S,5R)-3-(3,4-difluoro-2-methoxyphenyl)-4,5-dimethyl-N-(1-oxo-1,2,3,4-tetrahydroisoquinolin-7-yl)-5-(trifluoromethyl)tetrahydrofuran-2-carboxamide]	≥ 50	2	
COc1ccsc1CNCC[C@@]1(c2ccccn2)CCOC2(CCCC2)C1 [TRV-130]			PWT after modeling ([5]; TRV-130 0.5 mg/kg group, after modeling, pre-administration, 2.5 h after modeling): 5.40 g; PWT 2 h after administration ([5]; TRV-130 0.5 mg/kg, 2 h after administration): 8.94 g
COc1c(C2C(C(=O)Nc3ccc(C(N)=O)c(C(N)=O)c3)OC(C)(C(F)(F)F)C2C)ccc(F)c1F (single isomer, unassigned) [Example 30-2]		< 0.5	Inhibitory activity (inhibition/% at 100 nM concentration) ([1]; 100 nM, 0.1 µM): A (A ≥ 50)
COc1c([C@H]2[C@H](C(=O)Nc3ccnc(C(N)=O)c3)OC3(C(F)(F)F)CCC23C)ccc(F)c1F (relative stereo) [Example 59, rel-(2R,3S)-4-({[3-(3,4-difluoro-2-methoxyphenyl)-3a-methyl-5a-(trifluoromethyl)hexahydrocyclobuta[2,1-b]furan-2-yl]carbonyl}amino)pyridin-2-carboxamide]	≥ 50	2	
CONC(=O)c1cc(NC(=O)[C@@H]2O[C@@](C)(C(F)(F)F)[C@@H](C)[C@H]2c2ccc(F)c(F)c2OC)ccn1 (relative stereo) [Example 21]	≥ 50	26	
COc1cc(NC(=O)c2ccc(-c3ccc(Cl)cc3)o2)cc(OC)c1 [Example A-803467]			selectivity (in words) [3]: poor selectivity; bioavailability (in words) [4]: low bioavailability; pharmacokinetic data (in words) [4]: poor pharmacokinetic data
COc1c([C@H]2[C@H](C(=O)Nc3ccc4cn[nH]c(=O)c4c3)O[C@@](C)(C(F)(F)F)[C@H]2C)ccc(F)c1F (relative stereo) [Example 3, rel-(2R,3S,4S,5R)-3-(3,4-difluoro-2-methoxyphenyl)-4,5-dimethyl-N-4-oxa-3,4-dihydrophthalazin-6-yl)-5-(trifluoromethyl)tetrahydrofuran-2-carboxamide]	≥ 50	9	
COc1c([C@H]2[C@H](C(=O)Nc3ccnc(S(N)(=O)=O)c3)O[C@]3(C(F)(F)F)CC[C@]23C)ccc(F)c1F (relative stereo) [Example 87, rel-(1R,3R,4S,5R)-4-(3,4-difluoro-2-methoxyphenyl)-5-methyl-N-(2-sulfamoylpyridin-4-yl)-1-trifluoromethyl-2-oxabicyclo[3.2.0]heptane-3-carboxamide]	≥ 50	3	
COc1c([C@H]2[C@H](C(=O)Nc3ccc(F)c(C(N)=O)c3)O[C@]3(C(F)(F)F)CC[C@]23C)ccc(F)c1F (relative stereo) [Example 85, rel-(1R,3R,4S,5R)—N-(3-carbamoyl-4-fluorophenyl)-4-(3,4-difluoro-2-methoxyphenyl)-5-methyl-1-trifluoromethyl-2-oxabicyclo[3.2.0]heptane-3-carboxamide]	≥ 50	< 1	
COc1c(C2[C@H](C(=O)Nc3ccc(F)c(S(N)(=O)=O)c3)O[C@@](C)(C(F)(F)F)[C@H]2C)ccc(F)c1F (relative stereo) [Example 81]	≥ 50	< 0.5	
